# Read-outs that look alike come from different tables or passages of the source.
# Legend:
# [1] = tested on: L. donovani strain 1S promastigotes; assay: Antipromastigote assay (resazurin); type: cell-based; settings: L. donovani 1S, read-out: 1S IC50 ± SD, Promastigote
# Procedure: (§1) The antipromastigote activity of synthesized compounds was evaluated as described previously by Mangwegape et al. ([2021]) using three strains of L. donovani (1S (MHOM/SD/62/1S) and 9515 (MHOM/IN/95/9515)) and L. major (IR‐173 [MHOM/IR/−173]). The assay method is available in the Supinfo S1.
# (§2) The antipromastigote activity of synthesized compounds was evaluated using a modified, resazurin-based method of Kulshrestha et al. ^2 and Siqueira-Neto et al. ^3 and on three Leishmania strains. Leishmania donovani (strains 1S (MHOM/SD/62/1S) and 9515 (MHOM/IN/95/9515)) and L. major (strain IR-173 (MHOM/IR/-173)) promastigotes were cultured in M199 with Hank's salts and 0.68 mM L-glutamine (Sigma Aldrich) supplemented with 50 U/mL Penicillin/Streptomycin solution (Lonza), 4.2 mM sodium bicarbonate, 25 mM Hepes, 10% fetal bovine serum, 0.25% hemin, 0.1% biotin, and 10 mM adenine (Sigma Aldrich) and the pH adjusted to 7.3 – 7.4. The promastigotes were maintained at 25 °C.
# (§3) Amphothericin B (10 μM) served as the standard drug and growth medium without parasites served as the blank. The plates were incubated for 48 hours at 25 °C in humidified atmosphere. After incubation, 50 μL of resazurin solution (0.01% in PBS) was added to each well and the plates were further incubated at 25 °C in the dark for 24 hours. Absorbance was measured at 570 nm and 600 nm using the Thermofisher Scientific GO Multiscan plate reader. Data analysis was performed for each biological replicate using SkanIt 4.0 Research Edition software. Background absorbance of resazurin (600 nm) was subtracted from the absorbance values of resorufin (570 nm). The mean absorbance calculated and the percentage growth inhibition and cell viability were determined by the following equations: […]
# (§4) The IC50 and Z-score were determined for each compound’s three biological replicates using the cell viability % values and GraphPad Prism 5. The mean IC50 of the biological replicates with standard deviation (SD) served as the final IC50 of each compound.
# [2] = tested on: L. major strain IR‐173 promastigotes; assay: Antipromastigote assay (resazurin); type: cell-based; settings: L. major IR‐173, read-out: Antileishmanial activity, IC50 ± SD, Promastigote
# Procedure: as §1, §2, §3, §4
# [3] = tested on: L. donovani strain 9515 promastigotes; assay: Antipromastigote assay (resazurin); type: cell-based; settings: L. donovani 9515, read-out: 9515 IC50 ± SD, Promastigote
# Procedure: as §1, §2, §3, §4
# A375 melanoma cells = assay: Anticancer assay (resazurin); type: cell-based, human; settings: n = 3, read-out: Anticancer activity, IC50 ± SD, A375
# Procedure: (§5) The anticancer activities of synthesized compounds were evaluated using a resazurin‐based assay (Czekanska, [2011]). Accordingly, a screening method similar to that of the cytotoxicity assay was used to screen for anticancer activity, using human melanoma (A375), promyelocytic leukemia (Clone 15 HL‐60), lung cancer (A549), and breast cancer (MCF7) cells. The culture and assay methods are provided in the Supinfo S1.
# (§6) The potential anticancer activities of synthesized compounds were screened using the resazurin assay. ^5 Breast adenocarcinoma (MCF7, ATCC® HTB-22™) and human melanoma (A375, ATCC® CRL-1619™) cells were cultured in Hyclone Dulbecco's modified Eagle’s medium with high glucose (Separations) supplemented with 10 % fetal bovine serum (FBS) (Thermofisher Scientific) and 1 % L-glutamine, penicillin-streptomycin and non-essential amino acids (Lonza). Human lung carcinoma (A549, ATCC®, CCL-185™) cells were cultured in Ham’s F12K medium supplemented with 10% FBS and 1% L-glutamine, penicillin-streptomycin and non-essential amino acids. Human promyelocytic leukemia (Clone 15 HL-60, ATCC® CRL-1946™) cells were cultured in RPMI-1640 medium (Sigma Aldrich) supplemented with 10% FBS and 1% penicillin-streptomycin. The cell lines were maintained in a humidified atmosphere at 37 °C and 5% CO2.
# (§7) For the resazurin assay, 96 well plates were prepared with 100 μL of 100 000 cells/mL MCF7 cell suspension, 100 μL of 50 000 cells/mL A375 cell suspension, 100 μL of 25 000 cells/mL A549 cell suspension, or 50 μL of 50 000 cells/mL HL-60 cell suspension. The MCF7, A375 and A549 cell plates were incubated for 24 hours to allow adherence of the cells to the plate surface, after which the growth medium is replaced with 100 μL medium containing compounds. […] The cell lines were treated with: (i) parthenolide (Sigma Aldrich) (positive control); (ii) growth medium and solvent (negative control to compensate for possible solvent effects); (iii) growth medium and experimental compound solutions. […] Blanks contained growth medium without cells. The treated plates were incubated for 48 hours.
# (§8) To initiate the resazurin assay, 50 μL of sterile-filtered resazurin sodium salt (Sigma Aldrich) solution (0.01 % in PBS) was added and the plates incubated for 2 hours (MCF7, A375 and A549 cells) or 24 hours (HL-60 cells). Absorbance was measured at 570 and 600 nm using the Thermofisher Scientific GO Multiscan plate reader. Data analysis was performed for each biological replicate using SkanIt 4.0 Research Edition software. Further data analysis, calculations and IC50 determinations were identical to that of the antileishmanial and cytotoxicity assays.
# (§9) For the final IC50 of each compound, the mean IC50 of the biological replicates were calculated with standard deviation (SD).
# [4] = tested on: Clone 15 HL‐60 promyelocytic leukemia cells; assay: Anticancer assay (resazurin); type: cell-based, human; settings: for IC50: read-out: Anticancer activity, IC50 ± SD, Clone 15 HL‐60
# Procedure: as §5, §6, §7, §8, §9
# [5] = tested on: L. donovani strain 9515 amastigotes; assay: Anti-amastigote assay (intramacrophage, THP-1 host, resazurin); type: cell-based; settings: L. donovani 9515, read-out: 9515 IC50 ± SD, Amastigote
# Procedure: (§10) The activities of synthesized compounds against the intramacrophage parasites of the three Leishmania strains were evaluated using a modified, resazurin‐based method (Jain et al., [2012]; Njanpa et al., [2021]). Suspension cultures of human acute monocytic leukemia (THP‐1) cells were maintained in RPMI‐1640 medium (Sigma Aldrich) supplemented with 10% FBS and 1% penicillin–streptomycin, at 37°C and 5% CO2 in a humidified atmosphere. Duplicate 96‐well plates (for respective anti‐amastigote and cytotoxicity assays) were seeded with 200 μl of a 2.5 × 10^5 cells/ml suspension treated with 25 ng/ml phorbol 12‐myristate 13‐acetate (PMA), followed by 48‐h incubation to promote differentiation into adherent macrophages.
# (§11) For the anti‐amastigote assay, differentiated plates were carefully washed with PBS, followed by the addition of 200 μl of stationary phase promastigotes in RPMI 1640 medium with 2% FBS. An MOI of 30:1 was used for all three Leishmania strains. The parasite‐treated plates were incubated for 24 h at 32°C (L. major) or 37°C (L. donovani) and 5% CO2 to promote infection of the macrophages. […] Blanks were represented by growth medium without cells, as well as parasite‐free THP‐1 cells. The treated plates were incubated for 72 h.
# (§12) After incubation, the plates were gently washed three times with PBS to remove any remaining extracellular parasites. The wells were then treated with 20 μl of 0.05% sodium dodecyl sulfate in PBS for 30 s to lyse the host macrophages. Lysis was terminated by adding 180 μl promastigote growth medium with 10% FBS. To initiate the resazurin assay, 10 μl of resazurin solution (0.025% in PBS) was added to all wells and the plates were incubated for 24 h at 32°C (L. major) or 37°C (L. donovani) and 5% CO2. Absorbance measurements, calculations, and IC50 determinations were performed as described for the antipromastigote assay (Supinfo S1).
# [6] = tested on: L. donovani strain 1S amastigotes; assay: as above; type: cell-based; settings: L. donovani 1S, read-out: 1S IC50 ± SD, Amastigote
# Procedure: as §10, §11, §12
# [7] = tested on: L. major strain IR‐173 amastigotes; assay: as above; type: cell-based; settings: read-out: Antileishmanial activity, IC50 ± SD, Amastigote
# Procedure: as §10, §11, §12
# [8] = Leishmania major, THP-1, L. major IR‐173
compound,measurement,setting,value
"CC(=O)Nc1ccc(S(=O)(=O)NN)cc1 [1 g, N-[4-(Hydrazinylsulfonyl)phenyl]acetamide]",melting point,,175 to 178 °C
"NNS(=O)(=O)c1ccc(I)cc1 [1a, 4-Iodobenzenesulfonohydrazide]",melting point,,160 to 162 °C
"NNS(=O)(=O)c1ccc([N+](=O)[O-])cc1 [1b, 4-Nitrobenzenesulfonohydrazide]",melting point,,149 to 152 °C
"Cc1cc(C)c(S(=O)(=O)NN)c(C)c1 [1e, 2,4,6-Trimethylbenzenesulfonohydrazide]",melting point,,110 to 113 °C
"NNS(=O)(=O)c1ccc(-c2ccccc2)cc1 [1h, (1,1'-Biphenyl)-4-sulfonohydrazide]",melting point,,180 to 183 °C
"NNS(=O)(=O)C1(F)C=CC(c2ccccc2)=CC1 (stereo not shown) [1i, 4-Fluoro-(1,1'-biphenyl)-4-sulfonohydrazide]",melting point,,164 to 169 °C
"NNS(=O)(=O)C1(Cl)C=CC(c2ccccc2)=CC1 (stereo not shown) [1j, 4-Chloro-(1,1'-biphenyl)-4-sulfonohydrazide]",melting point,,150 to 153 °C
"COC1(S(=O)(=O)NN)C=CC(c2ccccc2)=CC1 (stereo not shown) [1k, 4-Methoxy-(1,1'-biphenyl)-4-sulfonohydrazide]",melting point,,173 to 175 °C
"NNS(=O)(=O)c1cccc2c1OCCO2 [1l, 2,3-Dihydrobenzo[b][1,4]dioxine-5-sulfonohydrazide]",melting point,,101 to 103 °C
"O=[N+]([O-])c1ccc(/C=N/NS(=O)(=O)c2ccc(I)cc2)o1 [2a, (E)-4-Iodo-N'-[(5-nitrofuran-2-yl)methylene]benzenesulfonohydrazide]",IC50,[1]; Leishmania donovani,> 10 µM
same,IC50,[2]; Leishmania major,> 10 µM
same,IC50,[3]; Leishmania donovani,> 10 µM
same,IC50,"A375 melanoma cells; Homo sapiens, A-375",> 10 µM
same,IC50,"[4]; Homo sapiens, HL-60, n = 3",> 10 µM
same,IC50,"[5]; Leishmania donovani, THP-1",> 10 µM
same,IC50,"[6]; Leishmania donovani, THP-1",> 10 µM
same,IC50,[7]; [8],> 10 µM
"O=[N+]([O-])c1ccc(S(=O)(=O)N/N=C/c2ccc([N+](=O)[O-])o2)cc1 [2b, (E)-4-Nitro-N'-[(5-nitrofuran-2-yl)methylene]benzenesulfonohydrazide]",IC50,[1]; Leishmania donovani,> 10 µM
same,IC50,[2]; Leishmania major,> 10 µM
same,IC50,[3]; Leishmania donovani,> 10 µM
same,IC50,"A375 melanoma cells; Homo sapiens, A-375",> 10 µM
same,IC50,"[4]; Homo sapiens, HL-60, n = 3",< 10 µM
same,"Preliminary screening, growth inhibition, Clone 15 HL‐60",[4]; cutoff 50% growth inhibition at 10 μM,qualified
same,IC50,[4]; n = 3,9.32 ± 0.9 µM
same,IC50,"[5]; Leishmania donovani, THP-1",> 10 µM
same,IC50,"[6]; Leishmania donovani, THP-1",> 10 µM
same,IC50,[7]; [8],> 10 µM
"CC(=O)Nc1ccc(S(=O)(=O)N/N=C/c2ccc([N+](=O)[O-])o2)cc1 [2g, (E)-N-{4-{ {2-[(5-nitrofuran-2-yl)methylene]hydrazinyl}sulfonyl}phenyl}acetamide]",IC50,[1]; Leishmania donovani,> 10 µM
same,IC50,[2]; Leishmania major,> 10 µM
same,IC50,"A375 melanoma cells; Homo sapiens, A-375",> 10 µM
same,IC50,"[6]; Leishmania donovani, THP-1",> 10 µM
same,IC50,[7]; [8],> 10 µM
"O=C1OCCN1/N=C/c1ccc([N+](=O)[O-])o1 [FZD, furazolidone, reference compound]",IC50,[1]; Leishmania donovani,0.32 µM
same,IC50,[2]; Leishmania major,0.34 ± 0.03 µM
same,IC50,[3]; Leishmania donovani,0.28 ± 0.04 µM
same,IC50,"[6]; Leishmania donovani, THP-1",1.94 µM
same,IC50,[7]; [8],2.8 ± 0.5 µM
"C=C1C(=O)O[C@H]2[C@H]1CC/C(C)=C/CC[C@@]1(C)O[C@@H]21 [PN, parthenolide, reference compound]",IC50,"A375 melanoma cells; Homo sapiens, A-375",5.13 ± 0.81 µM
same,IC50,"[4]; Homo sapiens, HL-60, n = 3",1.85 ± 0.15 µM
"(E)-4-Chloro-N'-[(5-nitrofuran-2-yl)methylene]-(1,1'-biphenyl)-4-sulfonohydrazide [2j]",IC50,[1],> 10 µM
same,IC50,[2],> 10 µM
same,IC50,[3],> 10 µM
same,IC50,A375 melanoma cells,> 10 µM
same,IC50,[4]; n = 3,> 10 µM
same,IC50,[5],> 10 µM
same,IC50,[6],> 10 µM
same,IC50,[7]; L. major IR‐173,> 10 µM
"(E)-4-Methoxy-N'-[(5-nitrofuran-2-yl)methylene]-(1,1'-biphenyl)-4-sulfonohydrazide [2k]",IC50,[1],> 10 µM
same,IC50,[2],> 10 µM
same,IC50,[3],> 10 µM
same,IC50,A375 melanoma cells,> 10 µM
same,IC50,[4]; n = 3,> 10 µM
same,IC50,[5],> 10 µM
same,IC50,[6],> 10 µM
same,IC50,[7]; L. major IR‐173,> 10 µM

# Reference: PMC9546217, “Exploring novel nitrofuranyl sulfonohydrazides as anti‐Leishmania and anti‐cancer agents: Synthesis, in vitro efficacy and hit identification” (Chemical Biology & Drug Design, 2022)
